Assay results from patent US20170131285A1, “METHODS AND COMPOSITIONS FOR DIAGNOSING, MONITORING AND TREATING CANCER” (INSERM (Institut National de la Sante et de la Recherche …, priority 2014, published 2017).
Where no end group is shown, it is not given here.

Tests used:
B16F10 tumors = test: B16F10 melanoma tumor model in C57/BL6 mice; type: in vivo, mouse
Experimental: FIG. 5: A8 anti-tumor effect in mice is associated to MDSC and an immune anti-tumor response. (A) Mice were sc injected with B16F10 cells (5×10^4). On day 4, when tumor size was about 0.9 mm^3, animals were treated every two days until the end of the experiment with A0 or A8 (3 mg/kg dissolved in PBS, i.p injection). On day 5, half the animals were treated with cisplatin as a single dose (CDDP, i.p injection, 5 mg/kg). At day 18, the percentage of Gr1^+ CD11b^+ cells in the spleen collected from the different groups of mice was analyzed by flow cytometry (6 animals per group). As a MDCS negative control (Ctl) we used animals with no tumor cells injected. Right panels, a representative immunoblot of pSTAT3 in the MDSC (Gr1^+ CD11b^+ cells) isolated from the spleen of control animals (A0/PBS) or A8 and CDDP-treated animals (A8/CDDP). 14-3-3 is used as a loading control. (B) Analysis of tumor growth in the animals described above. Tumor size was measured every two days (6 animals per group). The white symbols represent the tumors from animals treated with cisplatin. (C) HSP70-exosomes isolated from B16F10 cells treated or not with cisplatin (CDDP, 25 μM) were determined by flow cytometry. Data represent the percentage of MFI+/−SD (n=3); *, p<0.05. (D) Association curves of HSP70-exosomes present in tumor-bearing mice sera treated or not with cisplatin (5 mg/kg). For the biolayer interferometry, biotinylated A8 was immobilized on streptavidin sensor tips. Curves represent mean values of triplicate measurements for each concentration (for each curve, the blood of 5 mice per group was pooled).
Exponentially growing B16F10 were harvested and resuspended in an RPMI medium without FBS. In vivo studies were performed in wild-type C57/BL6 mice (Charles River). B16F10 cells (5·10^4) were injected s.c. into the right flank Tumor volumes were evaluated every 2 days. Mice were treated with a control peptide aptamer A0 (3 mg/kg) or the HSP70 aptamer A8 (3 mg/kg) and half mice were treated with cisplatin (CDDP, […]). The animals were treated according to the guidelines of the Ministère de la Recherche et de la Technologie, France. All experiments were approved by the Comité d'Ethique de l'Université de Bourgogne.
MDSC cell isolation and analysis: Single-cell suspensions were prepared from spleens, and red cells were removed using ammonium chloride lysis buffer. Gr-1+ cells were isolated from spleens of different group of tumor-bearing mice or naive mice by labeling the cells with PE Cy7 Ab to Gr-1, then using magnetic PE Cy7 beads and LS MACS columns (Miltenyi Biotec). For extracellular staining of immune markers, single-cell suspensions were prepared. We incubated 1·10^6 freshly prepared cells with fluorochrome-coupled CD11b antibody (eBioscience). All events were acquired by a BD Bioscience LSR-II device and analyzed with FlowJo (Tree Star).
Animals were killed 18 days after cell injection. The site of tumor cell injection was resected and snap-frozen in liquid nitrogen. An immunohistochemical study of tumor-infiltrating inflammatory cells was performed on acetone-fixed 5 μm cryostat sections.
Next, we tested whether A8 was also able to block the immunosuppressive effect of MDSC in an in vivo cancer model. We performed subcutaneous injection at day 0 of B16F10 cells or media as a control in C57/BL6 mice. When tumor size reached about 0.9 mm^3 ([…]), mice were treated i.p. with a control peptide aptamer (A0) or A8 every two days until the end of the experiment. When indicated, half of the animals received cisplatin (CDDP, […], i.p.) as a single dose. Tumor growth was measured every two days. After 18 days, we analyzed the percentage of MDSC present in mice spleen (6 animals per group) by FACS using the specific markers Gr1^+ and CD11b^+ (FIG. 5A). […]

primary MDSC = test: Primary MDSC proliferation (Cellometer-mini); type: cell-based, mouse; conditions: exosomes from B16F10, A8 16 μM, 24 hours
Experimental: FIG. 9: TDE and A8 effects on MSC2 and MDSC proliferation. A) Dynamic monitoring of in vitro MSC2 cell proliferation using the RTCA-DP system (Real-Time Cell Analyzer). MSC2 were incubated or not for 11 h with exosomes (from B16F10) in the absence or presence of A8 (16 μM and 32 μM). Cell index values were measured every 30 seconds (n=3). B) MSC2 were incubated or not for 24 h with exosomes (from B16F10) in the absence or presence of A8 (16 μM). Then, cells were labelled with BrdU and incorporation was determined by flow cytometry (n=3). C) MDSC were treated with exosomes (from B16F10) in the absence or presence of A8 ([…]) for 24 hours and then analyzed for proliferation by Cellometer-mini. *p<0.05.
MSC2 cells proliferation were analyzed by to different techniques. First, MSC2 (1·10^4) were seeded onto 16-well plates with medium containing 10% FBS and incubated for 34 hours. […] Into each well of the micro-electronic sensor transendothelial electric resistance (TER) was measured by xCELLigence real time cell analyzer DP system (Roche). TER was measured every 30 s and then normalized to the initial value. […] MDSC proliferation was analyzed by cell counting. MDSC cells (1·10^6) from spleen of naive mice (see MDSC isolation section) were treated or not with exosomes (from B16F10) in the absence or presence of A8 (16 μM) for 24 hours and then analyzed for viability by Cellometer-mini (Ozyme).

SPWPRPTY [Aptamer A8, SPWPRPTY]
intra-tumor infiltration of immune cells (CD3+, CD11c+, CD11b+, F4/80+) (B16F10 tumors; B16F10 model): intra-tumor infiltration of immune cells | anti-cancer properties of cisplatin (B16F10 tumors; B16F10 model, A8 added to cisplatin): strong increase | percentage of MDSC (Gr1+ CD11b+) in spleen (B16F10 tumors; B16F10 tumor-bearing C57/BL6 mice, day 18, A0 or A8 3 mg/kg i.p. every two days, cisplatin single i.p. dose, 6 animals per group): 6+/−0.7% | activity of spleen MDSC measured by phosphorylated STAT3 (B16F10 tumors; after cisplatin treatment, immunoblot of Gr1+ CD11b+ cells): affected their activity | tumor growth / tumor progression (B16F10 tumors; tumor-bearing mice): inhibits tumor progression | TDE-induced proliferation of primary MDSC (primary MDSC): blocked
